What was measured:
Assay type in all cases: binding
NTSR1 = target: T1, NTSR1 (Homo sapiens, UniProt P30989); assay: NanoBRET screen HiBiT-NTSR1 in HEK293
T1 construct: purchased Promega (in-house HiBiT-GPCR construct library, NanoBRET)
Procedure: (§1) Each tracer candidate was screened across the entire library of HiBiT-GPCR constructs using NanoBRET as the detection modality. As depicted in Figure 4A, the specificity of interactions was evaluated through decrease in BRET due to competitive displacement of a bound tracer by excess parental compound. Each tracer was analyzed for binding to each HiBiT-GPCR fusion in the absence and in the presence of competing parental compound. Briefly, HEK293 cells were transfected with HiBiT-GPCR constructs diluted into promoterless DNA to reduce expression and maximize translocation to the cell surface. Each tracer candidate was then screened at concentrations of 1 μM and 0.1 μM across cells expressing these fusions. Cells were treated for 1.5 h with tracer either alone or in the presence of 20 μM competing parental compound (i.e., control). BRET was measured upon addition of purified LgBiT and subsequent complementation with HiBiT genetically fused to a GPCR. The specificity of interactions was assessed through a decrease in BRET signal due to competitive displacement of the bound tracer. To further gauge the robustness of these interactions, the fold response over the control (i.e., BRETtracer/BRETcontrol) was calculated. We chose a 1.5-fold response, which translates to ≥7-fold signal over noise as the minimal threshold required to score an interaction as positive. […]. Below we highlight the screening results obtained for our exemplary fluorescent tracers based on Clozapine, Amitriptyline and AZD1283.
(§2) HiBiT-GPCR DNA constructs were diluted in 10 mM Tris pH 8 to a final concentration of 0.01 μg/μL, arrayed in 96-well plates and stored at −20 °C. For transfection, HEK293 cells were suspended in Opti-MEM (without phenol red) supplemented with 2% fetal bovine serum (Seradigm) and 100 units/mL penicillin–streptomycin (Gibco) at a final concentration of 220,000 cells/mL and dispensed into white 96-well plates at 90 μL/well. Subsequent transfections and screens were carried using an Agilent Bravo Automated Liquid Handling Platform. First, the 96-well HiBiT DNA arrays were diluted 25-fold in Opti-MEM (without serum or phenol red) to a final concentration of 0.0004 μg/μL and 20 μL of the diluted DNAs were transferred into new 96-well plates. Next, promoterless carrier DNA (1 μg/μL) was diluted 25-fold (0.04 μg/μL) and then dispensed into the diluted arrays at 20 μL/well. Following brief mixing, Viafect transfection reagent (Promega) diluted 16-fold into Opti-MEM was dispensed into the plates at 40 μL/well. After mixing by pipetting, plates were incubated for 10 min on the pipetting station deck. The DNA-transfection reagent complexes were then added to plates containing cells. To facilitate the screen, 10 μL of DNA-transfection reagent complexes were added in duplicates to the top 4 and bottom 4 rows, resulting in two identical 48-well arrays per plate. Plates with transfected cells were incubated for 18–20 h at 37 °C/5% CO2. A screen of each tracer across the entire library using two different concentrations requires duplicate plates of transfected cells. Depending on the number of tracers being screened, transfections can be scaled up using the same ratios. The next day, for each tracer, four 20× screening solutions in tracer dilution buffer (Promega) were prepared: two duplicates at final concentration of 20 μM and two duplicates at a final concentration of 2 μM. A competing unmodified compound was added to one of each duplicate at a final concentration of 400 μM. The four resulting solutions were diluted 4-fold in Opti-MEM without serum or phenol red to generate 5× solutions (5 µM and 0.5 µM tracer +/− 100 μM competing compound). To screen the library, a BioTek MultiFlo FX liquid dispenser was used to dispense 22.5 µL of tracer solution to the top 4 rows and 22.5 µL tracer + competing compound solution to the 4 bottom rows. Plates were briefly mixed on an orbital shaker and incubated for 1.5 h at room temperature. […]

PTGDR = target: T2, PTGDR (Homo sapiens, UniProt Q13258); assay: NanoBRET screen HiBiT-PTGDR in HEK293
T2 construct: purchased Promega (in-house HiBiT-GPCR construct library, NanoBRET)
T2 sequence (Q13258 1-359): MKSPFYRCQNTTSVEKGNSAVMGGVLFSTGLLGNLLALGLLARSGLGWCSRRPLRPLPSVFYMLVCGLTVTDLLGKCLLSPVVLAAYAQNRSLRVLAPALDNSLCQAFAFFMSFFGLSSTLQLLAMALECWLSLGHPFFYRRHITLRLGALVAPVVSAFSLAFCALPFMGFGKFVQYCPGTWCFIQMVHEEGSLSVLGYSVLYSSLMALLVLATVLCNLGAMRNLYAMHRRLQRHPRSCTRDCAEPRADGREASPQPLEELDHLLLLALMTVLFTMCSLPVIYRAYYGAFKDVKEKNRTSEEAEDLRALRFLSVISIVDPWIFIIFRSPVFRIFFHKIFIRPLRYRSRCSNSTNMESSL
Procedure: as §1, §2

BDKRB1 = target: T3, BDKRB1 (Homo sapiens, UniProt P46663); assay: NanoBRET screen HiBiT-BDKRB1 in HEK293
T3 construct: purchased Promega (in-house HiBiT-GPCR construct library, NanoBRET)
T3 sequence (P46663 1-353): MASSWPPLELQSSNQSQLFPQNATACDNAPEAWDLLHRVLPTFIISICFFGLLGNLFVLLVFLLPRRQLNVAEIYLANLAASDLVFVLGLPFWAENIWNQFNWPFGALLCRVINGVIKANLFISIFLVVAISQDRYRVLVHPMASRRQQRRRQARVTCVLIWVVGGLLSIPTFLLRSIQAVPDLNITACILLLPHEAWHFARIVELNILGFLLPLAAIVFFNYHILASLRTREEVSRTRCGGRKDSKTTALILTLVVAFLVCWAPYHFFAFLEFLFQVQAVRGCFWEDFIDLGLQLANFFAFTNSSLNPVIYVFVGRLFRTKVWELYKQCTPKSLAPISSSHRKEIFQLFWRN
Procedure: as §1, §2

FPR2 = target: T4, FPR2 (Homo sapiens, UniProt P25090); assay: NanoBRET screen HiBiT-FPR2 in HEK293
T4 construct: purchased Promega (in-house HiBiT-GPCR construct library, NanoBRET)
T4 sequence (P25090 1-351): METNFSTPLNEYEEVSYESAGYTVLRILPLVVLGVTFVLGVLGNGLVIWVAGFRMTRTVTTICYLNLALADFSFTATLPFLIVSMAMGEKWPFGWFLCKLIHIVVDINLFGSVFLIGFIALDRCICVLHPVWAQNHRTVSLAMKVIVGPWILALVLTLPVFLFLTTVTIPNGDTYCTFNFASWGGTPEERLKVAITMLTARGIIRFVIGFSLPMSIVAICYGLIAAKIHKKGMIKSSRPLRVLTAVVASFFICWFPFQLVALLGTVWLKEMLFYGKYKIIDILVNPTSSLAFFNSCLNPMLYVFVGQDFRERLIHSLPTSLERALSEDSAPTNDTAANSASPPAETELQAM
Procedure: as §1, §2

PTGER4 = target: T5, PTGER4 (Homo sapiens, UniProt P35408); assay: NanoBRET screen HiBiT-PTGER4 in HEK293
T5 construct: purchased Promega (in-house HiBiT-GPCR construct library, NanoBRET)
T5 sequence (P35408 whole entry): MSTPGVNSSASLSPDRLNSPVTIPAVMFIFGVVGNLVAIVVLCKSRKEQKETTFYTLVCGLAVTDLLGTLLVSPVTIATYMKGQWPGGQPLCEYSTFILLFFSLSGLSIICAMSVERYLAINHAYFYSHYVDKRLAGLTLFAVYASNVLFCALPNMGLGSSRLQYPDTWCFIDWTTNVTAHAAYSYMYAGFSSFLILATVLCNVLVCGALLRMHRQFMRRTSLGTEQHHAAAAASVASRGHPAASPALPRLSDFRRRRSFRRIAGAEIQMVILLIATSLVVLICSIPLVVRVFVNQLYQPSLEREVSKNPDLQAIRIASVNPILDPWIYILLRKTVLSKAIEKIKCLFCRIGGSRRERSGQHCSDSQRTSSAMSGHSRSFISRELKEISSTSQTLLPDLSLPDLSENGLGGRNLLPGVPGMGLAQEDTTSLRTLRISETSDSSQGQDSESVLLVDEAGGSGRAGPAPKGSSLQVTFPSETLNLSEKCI
Procedure: as §1, §2

[1] = tracer at 0.1μM, listed as amitriptyline-b-2-NB590
[2] = tracer at 1μM, listed as amitriptyline-b-2-NB590

T1 sequence (P30989 whole entry): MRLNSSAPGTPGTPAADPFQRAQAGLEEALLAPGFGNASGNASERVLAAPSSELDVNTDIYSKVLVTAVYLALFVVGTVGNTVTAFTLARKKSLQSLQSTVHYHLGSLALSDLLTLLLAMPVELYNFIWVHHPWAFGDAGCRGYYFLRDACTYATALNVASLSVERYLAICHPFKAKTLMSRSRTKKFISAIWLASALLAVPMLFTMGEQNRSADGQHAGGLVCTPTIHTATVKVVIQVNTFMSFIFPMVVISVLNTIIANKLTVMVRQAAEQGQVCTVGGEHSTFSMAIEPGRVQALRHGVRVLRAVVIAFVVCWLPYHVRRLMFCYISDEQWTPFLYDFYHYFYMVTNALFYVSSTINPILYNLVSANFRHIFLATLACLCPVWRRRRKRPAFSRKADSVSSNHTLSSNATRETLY

Row | SMILES | NanoBRET Fold Response (NTSR1; NTSR1, tracer 0.1μM) | NanoBRET Fold Response (PTGDR; PTGDR, tracer 0.1μM) | NanoBRET Fold Response (PTGDR; PTGDR, tracer 1μM) | NanoBRET Fold Response (BDKRB1; BDKRB1, tracer 0.1μM) | NanoBRET Fold Response (BDKRB1; BDKRB1, tracer 1μM) | NanoBRET Fold Response (FPR2; FPR2, tracer 0.1μM) | NanoBRET Fold Response (FPR2; FPR2, tracer 1μM) | NanoBRET Fold Response (PTGER4; PTGER4, tracer 0.1μM) | NanoBRET Fold Response (PTGER4; PTGER4, tracer 1μM) | NanoBRET Fold Response (NTSR1; NTSR1, tracer 1μM) | other results
1 | COc1ccccc1N1CCN(CCCCN2C(=O)c3ccc(CNC(=O)CCOCCOCCOCCOCCNC(=O)CCc4ccc5n4[B-](F)(F)[N+]4=C(c6ccc[nH]6)C=CC4=C5)cc3C2=O)CC1 [NAN-190-2-NB590] | 0.97 | 0.97 | 1.01 | 1.05 | 1.06 | 0.56 | 1.20 | 1.02 | 1.01 | – | –
2 | CC(C)N(CC[C@H](c1ccccc1)c1cc(CCNC(=O)CCOCCOCCOCCOCCNC(=O)CCc2ccc3n2[B-](F)(F)[N+]2=C(c4ccc[nH]4)C=CC2=C3)ccc1O)C(C)C [Tolterodine-2-NB590] | 1.09 | 1.16 | 0.96 | 0.99 | 0.79 | 1.07 | 0.71 | 1.00 | 0.99 | 0.90 | –
3 | N#CN=C(NCCCOc1cccc(CN2CCCCC2)c1)NCCNC(=O)CCOCCOCCOCCOCCNC(=O)CCc1ccc2n1[B-](F)(F)[N+]1=C(c3ccc[nH]3)C=CC1=C2 [Aminopotentidine-2-NB590] | 1.02 | 0.99 | 0.79 | 1.01 | 1.02 | 0.95 | 1.10 | 1.05 | 1.03 | 1.03 | –
4 | CCOC(=O)c1cc(C#N)c(N2CCC(C(=O)NS(=O)(=O)Cc3ccccc3/C=C/C(=O)NCCNC(=O)CCc3ccc4n3[B-](F)(F)[N+]3=C(c5ccc[nH]5)C=CC3=C4)CC2)nc1C [AZD1283-1-NB590] | – | – | – | – | – | – | – | – | – | – | NanoBRET Fold Response (NTSR1; NTSR1, 0.1μM): 1.04; NanoBRET Fold Response (NTSR1; NTSR1, 1μM): 1.07; NanoBRET Fold Response (PTGDR; PTGDR, 0.1μM): 1.42; NanoBRET Fold Response (PTGDR; PTGDR, 1μM): 1.19; NanoBRET Fold Response (BDKRB1; BDKRB1, 0.1μM): 1.05; NanoBRET Fold Response (BDKRB1; BDKRB1, 1μM): 1.04; NanoBRET Fold Response (FPR2; FPR2, 0.1μM): 0.99; NanoBRET Fold Response (FPR2; FPR2, 1μM): 1.04; NanoBRET Fold Response (PTGER4; PTGER4, 0.1μM): 1.03; NanoBRET Fold Response (PTGER4; PTGER4, 1μM): 1.02
5 | CN(C)CCC=C1c2ccccc2CCc2ccc(C(=O)NCCNC(=O)CCOCCOCCOCCOCCNC(=O)CCc3ccc4n3[B-](F)(F)[N+]3=C(c5ccc[nH]5)C=CC3=C4)cc21 [Amitriptyline-b-2-NB590] | – | – | – | – | – | – | – | – | – | – | NanoBRET Fold Response (NTSR1; [1]): 0.97; NanoBRET Fold Response (NTSR1; [2]): 1.02; NanoBRET Fold Response (PTGDR; tracer at 1μM): 1.03; NanoBRET Fold Response (BDKRB1; [1]): 1.14; NanoBRET Fold Response (BDKRB1; [2]): 1.33; NanoBRET Fold Response (FPR2; [1]): 0.88; NanoBRET Fold Response (FPR2; tracer at 1μM): 0.99; NanoBRET Fold Response (PTGER4; tracer at 0.1μM): 0.99; NanoBRET Fold Response (PTGER4; tracer at 1μM): 1.04
6 | O=C(CCc1ccc2n1[B-](F)(F)[N+]1=C(c3ccc[nH]3)C=CC1=C2)NCCOCCOCCNC(=O)OCCOCCN1CCN(C2=Nc3ccccc3Sc3ccccc32)CC1 [Quetiapine-a-2-NB590] | 1.03 | 0.99 | 1.02 | 1.42 | 0.65 | 1.06 | 0.82 | 1.02 | 1.08 | 0.89 | –
7 | Cc1cc2c(s1)Nc1ccccc1N=C2N1CCN(CCCNC(=O)CCOCCOCCOCCOCCNC(=O)CCc2ccc3n2[B-](F)(F)[N+]2=C(c4ccc[nH]4)C=CC2=C3)CC1 [Olanzapine-a-2-NB590] | 1.01 | 0.95 | 1.09 | 0.83 | 1.10 | 0.70 | 0.80 | 1.02 | 1.07 | 1.02 | –
8 | CN1CCN(C2=Nc3cc(Cl)ccc3Nc3ccc(CNC(=O)CCOCCOCCOCCOCCNC(=O)CCc4ccc5n4[B-](F)(F)[N+]4=C(c6ccc[nH]6)C=CC4=C5)cc32)CC1 [Clozapine-b-2-NB590] | – | – | – | – | – | – | – | – | – | – | NanoBRET Fold Response (NTSR1; NTSR1, 0.1μM tracer): 1.00; NanoBRET Fold Response (NTSR1; NTSR1, 1μM tracer): 1.01; NanoBRET Fold Response (PTGDR; PTGDR, 0.1μM tracer): 1.10; NanoBRET Fold Response (PTGDR; PTGDR, 1μM tracer): 1.01; NanoBRET Fold Response (BDKRB1; BDKRB1, 0.1μM tracer): 0.99; NanoBRET Fold Response (BDKRB1; BDKRB1, 1μM tracer): 0.92; NanoBRET Fold Response (FPR2; FPR2, 0.1μM tracer): 0.78; NanoBRET Fold Response (PTGER4; PTGER4, 0.1μM tracer): 1.03; NanoBRET Fold Response (PTGER4; PTGER4, 1μM tracer): 1.03
9 | COc1ccc2c(n1)c(CCNC(C)=O)cn2CCNC(=O)CCc1ccc2n1[B-](F)(F)[N+]1=C(c3ccc[nH]3)C=CC1=C2 [Azamelatonin-1-NB590] | – | – | – | – | – | – | – | – | – | – | NanoBRET Fold Response (NTSR1; 0.1μM tracer): 1.05; NanoBRET Fold Response (NTSR1; 1μM tracer): 0.99; NanoBRET Fold Response (PTGDR; 0.1μM tracer): 1.13; NanoBRET Fold Response (PTGDR; 1μM tracer): 1.18; NanoBRET Fold Response (BDKRB1; 0.1μM tracer): 1.39; NanoBRET Fold Response (BDKRB1; 1μM tracer): 0.74; NanoBRET Fold Response (FPR2; 0.1μM tracer): 0.96; NanoBRET Fold Response (FPR2; 1μM tracer): 1.50; NanoBRET Fold Response (PTGER4; 0.1μM tracer): 1.06; NanoBRET Fold Response (PTGER4; 1μM tracer): 0.96

Source: article PMC8151276, “An Integrated Approach toward NanoBRET Tracers for Analysis of GPCR Ligand Engagement” (Molecules, 2021)
